The record followed here is ChEMBL document CHEMBL1287705, “Design and synthesis of threading intercalators to target DNA” (Bioorg Med Chem Lett, 2010).

The subject of test [1] is HL-60. In words: Cytotoxicity against human HL60 cells by MTS assay. Type of test: functional, cell-based. (In general: Tetrazolium dyes change colour on reduction, which living cells bring about.)
For a further test, the system named is Calf thymus DNA. The test is described as follows: Displacement of ethidium bromide from calf thymus DNA by fluorometric assay. Type of test: nucleic-acid assay. The following applies: Bos taurus.
In test [2] the test system is HL-60. In words: Growth inhibition of human HL60 cells. The class given is functional.

By IC50 is commonly meant the concentration that inhibits the measured activity by half. The low end stands for inhibition by little substance, the high end for a need for much substance. `CN(C)CCNC(=O)c1cccc2c(NCCCCCCNS(=O)(=O)c3cccc4cccnc34)c3ccccc3nc12` gave an IC50 with HL-60 [1] of 16 µM.
In the case of `CN(C)CCNC(=O)c1cccc2c(NCCCCCCNS(=O)(=O)c3cccc4c(N(C)C)cccc34)c3ccccc3nc12`, in the test with HL-60 [1], the midpoint of inhibition, the IC50, lay at 2.1 µM.
For the molecule `CN(C)CCNC(=O)c1ccc2c(NCCCCCCNS(=O)(=O)c3cccc4cccnc34)c3ccccc3nc2c1`, in the test on HL-60 [1], it took 35.8 µM to reach half-maximal inhibition (IC50).
Take `CN(C)CCNC(=O)c1ccc2c(NCCCCCCN)c3ccccc3nc2c1`: the half-inhibitory concentration (IC50) in the test with HL-60 [1] worked out at 38.3 µM. In the test with Calf thymus DNA, this molecule came in with a Kapp of 9.83 ×10⁶ /M.
In the test with HL-60 [1], `CN(C)CCNC(=O)c1cccc2c(NCCCCCCNC(=O)c3ccc4ccccc4n3)c3ccccc3nc12` came in with an IC50 of 22.6 µM.
On to `CN(C)CCNC(=O)c1ccc2c(NCCCCCCNC(=O)c3cccc4ccccc34)c3ccccc3nc2c1`, for which, in the test on HL-60 [1], inhibition was half-maximal at 58.9 µM (IC50).
As to `CN(C)CCNC(=O)c1cccc2c(NCCCCCCNC(=O)c3cccc4ccccc34)c3ccccc3nc12`, the IC50 with HL-60 [1] came to 3.5 µM.
Molecule `CN(C)CCNC(=O)c1cccc2c(NCCCCCCN)c3ccccc3nc12` yielded an IC50 with HL-60 [1] of 0.45 µM. In the test with Calf thymus DNA, this molecule gave a Kapp of 3.1 ×10⁷ /M.
For `CN(C)CCNC(=O)c1ccc2c(NCCCCCCNC(=O)c3ccc4ccccc4n3)c3ccccc3nc2c1`, the 50% inhibitory concentration (IC50) with HL-60 [1] amounted to 30.7 µM.
In the case of `CN(C)CCNC(=O)c1ccc2c(NCCCCCCNS(=O)(=O)c3cccc4c(N(C)C)cccc34)c3ccccc3nc2c1`, 26.7 µM corresponded to half-maximal inhibition in the test with HL-60 [1] (IC50).
By GI50 is commonly meant the concentration at which growth is held to half of that of the control. For `Nc1c2ccccc2nc2ccccc12` [AMINACRINE], in the test with Calf thymus DNA, the Kapp came to 1.8 ×10⁶ /M and the logKA was 6.26. For the same molecule, in the test on HL-60 [2], halving of growth (GI50) required 2 µM.
